Test results reported in publication PMC7893122 (Acta Pharmaceutica Sinica. B, 2020).
Values belong to the molecule of their own block, whether it stands above or below them.

How the values were obtained:
[1] = tested on: HH signaling pathway (GLI-responsive firefly luciferase reporter); test: Dual luciferase reporter assay; format: cell-based; details: for IC50: read-out: IC50 GLI-luc reporter
[2] = molecular target: BRD4 (BD1) (Homo sapiens, UniProt O60885); test: Homogeneous time-resolved fluorescence binding assay, BRD4; details: for IC50: IC50 BRD4 (BD1), mean ± SD from three separate experiments; for fold less potent than compound 2 against BRD4: ratio of IC50 values
[3] = Pharmacokinetics in Sprague–Dawley rats; format: in vivo; details: rat; for AUC(0-inf) / AUC(0-t) / MRT inf / clearance / half-life / Cmax / Tmax: Sprague-Dawley, plasma; for Vss_obs: i.v. 1 mg/kg
[4] = molecular target: hERG channel (Homo sapiens, UniProt Q12809); test: hERG inhibition; format: cell-based
hERG channel, sequence (Q12809 whole entry): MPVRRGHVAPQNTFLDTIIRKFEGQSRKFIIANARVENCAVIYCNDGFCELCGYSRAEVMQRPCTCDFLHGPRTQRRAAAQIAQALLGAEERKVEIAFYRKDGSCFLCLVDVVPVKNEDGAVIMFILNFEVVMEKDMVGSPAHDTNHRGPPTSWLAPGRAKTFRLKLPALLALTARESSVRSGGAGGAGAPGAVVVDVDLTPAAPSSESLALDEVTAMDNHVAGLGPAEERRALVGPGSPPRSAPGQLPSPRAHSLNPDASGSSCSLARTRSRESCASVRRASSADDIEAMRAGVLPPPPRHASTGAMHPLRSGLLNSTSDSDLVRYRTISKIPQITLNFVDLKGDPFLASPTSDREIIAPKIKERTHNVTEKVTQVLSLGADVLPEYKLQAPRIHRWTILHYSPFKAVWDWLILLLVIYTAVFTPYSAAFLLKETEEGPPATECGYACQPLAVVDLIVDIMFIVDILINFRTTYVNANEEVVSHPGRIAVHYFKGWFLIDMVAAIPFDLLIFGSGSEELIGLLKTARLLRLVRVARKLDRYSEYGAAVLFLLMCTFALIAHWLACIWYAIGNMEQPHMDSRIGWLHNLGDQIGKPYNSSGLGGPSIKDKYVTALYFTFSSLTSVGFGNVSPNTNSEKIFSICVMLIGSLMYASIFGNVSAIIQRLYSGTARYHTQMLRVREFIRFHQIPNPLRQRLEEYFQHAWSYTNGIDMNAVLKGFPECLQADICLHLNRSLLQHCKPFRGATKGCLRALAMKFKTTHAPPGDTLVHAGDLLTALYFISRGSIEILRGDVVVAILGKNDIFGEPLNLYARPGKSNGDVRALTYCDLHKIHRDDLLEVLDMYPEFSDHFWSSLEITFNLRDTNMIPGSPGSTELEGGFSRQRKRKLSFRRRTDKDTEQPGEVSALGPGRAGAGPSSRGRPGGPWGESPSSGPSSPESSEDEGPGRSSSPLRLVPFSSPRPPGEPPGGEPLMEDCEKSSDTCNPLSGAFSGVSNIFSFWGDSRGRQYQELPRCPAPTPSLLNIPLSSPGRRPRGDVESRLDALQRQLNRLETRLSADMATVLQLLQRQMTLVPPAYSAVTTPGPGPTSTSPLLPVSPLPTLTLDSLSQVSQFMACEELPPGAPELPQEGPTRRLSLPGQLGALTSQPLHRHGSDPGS

SMILES: COc1nnc2ccc(N3CCC(c4ccc(OCCN5CCN(C)C(=O)[C@H]5C)cc4)CC3)nn12 [AZD5153 (4), (3R)-4-[2-[4-[1-(3-methoxy-[1,2,4]triazolo[4,3-b]pyridazin-6-yl)-4-piperidyl]phenoxy]ethyl]-1,3-dimethyl-piperazin-2-one, reference compound]
IC50 [1]: 32.1 ± 7.71 nM | IC50 [2]: 18.2 ± 2.7 nM

SMILES: CCOC(=O)Nc1cc(-c2cc(NS(=O)(=O)CC)ccc2Oc2ccc(F)cc2F)cn(C)c1=O [Compound 5]
IC50 [1]: 157 ± 1.3 nM | IC50 [2]: 27.6 ± 5.7 nM | fold less potent than compound 2 against BRD4 [2]: 8 fold

SMILES: CCS(=O)(=O)Nc1ccc(Oc2ccc(F)cc2F)c(-c2cc(NC(=O)OCCOC)c(=O)n(C)c2)c1 [Compound 6]
IC50 [1]: > 100 nM | IC50 [2]: > 100 nM

SMILES: CCCC(=O)Nc1cc(-c2cc(NS(=O)(=O)CC)ccc2Oc2ccc(F)cc2F)cn(C)c1=O [Compound 7]
IC50 [1]: > 100 nM | IC50 [2]: > 100 nM

SMILES: CCS(=O)(=O)Nc1ccc(Oc2ccc(F)cc2F)c(-c2cc(NS(=O)(=O)CC)c(=O)n(C)c2)c1 [Compound 8]
IC50 [1]: > 100 nM | IC50 [2]: 42.8 ± 9.6 nM

SMILES: CCS(=O)(=O)Nc1ccc(Oc2ccc(F)cc2F)c(-c2cc(Nc3ncc[nH]3)c(=O)n(C)c2)c1 [Compound 9]
IC50 [1]: > 100 nM | IC50 [2]: 47.6 ± 2.9 nM

SMILES: CCS(=O)(=O)Nc1ccc(Oc2ccc(F)cc2F)c(-c2cc(Nc3ccccn3)c(=O)n(C)c2)c1 [Compound 10]
IC50 [1]: > 100 nM | IC50 [2]: > 100 nM

SMILES: CCS(=O)(=O)Nc1ccc(Oc2ccc(F)cc2F)c(-c2cc(Nc3ccncn3)c(=O)n(C)c2)c1 [Compound 11]
IC50 [1]: > 100 nM | IC50 [2]: > 100 nM

SMILES: CN(C)CCN1CCCN(c2ccc(Oc3ccc(F)cc3F)c(-c3cn(C)c(=O)c4[nH]ccc34)c2)S1(=O)=O [Compound 18]
IC50 [1]: 56.1 ± 8.25 nM | IC50 [2]: 1.52 ± 0.72 nM

SMILES: CN(CCO)CCN1CCCN(c2ccc(Oc3ccc(F)cc3F)c(-c3cn(C)c(=O)c4[nH]ccc34)c2)S1(=O)=O [Compound 20]
IC50 [1]: 42.8 ± 30.7 nM | IC50 [2]: 1.01 ± 0.34 nM

SMILES: Cn1cc(-c2cc(N3CCCN(CCN4CCC(CO)C4)S3(=O)=O)ccc2Oc2ccc(F)cc2F)c2cc[nH]c2c1=O (stereo not shown) [Compound 22]
IC50 [1]: > 100 nM

SMILES: Cn1cc(-c2cc(N3CCCN(CC4(CO)COC4)S3(=O)=O)ccc2Oc2ccc(F)cc2F)c2cc[nH]c2c1=O [Compound 23]
IC50 [1]: 45.8 ± 19.2 nM | IC50 [2]: 0.58 ± 0.1 nM

SMILES: Cn1cc(-c2cc(N3CCCS3(=O)=O)ccc2Oc2ccc(F)cc2F)c2cc(C(=O)O)[nH]c2c1=O [Compound 26]
IC50 [1]: > 100 nM | IC50 [2]: 21 ± 11 nM | fold less potent than compound 2 against BRD4 [2]: > 4 fold

SMILES: Cn1cc(-c2cc(N3CCCCS3(=O)=O)ccc2Oc2ccc(F)cc2F)c2cc(C(=O)O)[nH]c2c1=O [Compound 27]
IC50 [1]: > 100 nM | IC50 [2]: 14.3 ± 4.52 nM | fold less potent than compound 2 against BRD4 [2]: > 4 fold

SMILES: CN1CCN(CCCNC(=O)c2cc3c(-c4cc(N5CCCS5(=O)=O)ccc4Oc4ccc(F)cc4F)cn(C)c(=O)c3[nH]2)CC1 [Compound 32]
IC50 [1]: > 100 nM | IC50 [2]: 0.75 ± 0.07 nM

SMILES: Cn1cc(-c2cc(N3CCCCS3(=O)=O)ccc2N[C@@H]2C[C@@H](CO)[C@@H](O)C2)c2cc[nH]c2c1=O [Compound 39]
IC50 [1]: > 100 nM | IC50 [2]: 3.42 ± 0.25 nM

SMILES: CN1C(=O)C(C)(C)Oc2c(-c3cn(C)c(=O)c4[nH]ccc34)cc(S(C)(=O)=O)cc21 [INCB-057643, reference compound]
IC50 [1]: 40.6 ± 4.9 nM | IC50 [2]: 11.6 ± 1.8 nM

SMILES: Cc1sc2c(c1C)C(c1ccc(Cl)cc1)=N[C@@H](CC(=O)Nc1ccc(O)cc1)c1nnc(C)n1-2 [OTX-015, reference compound]
IC50 [1]: 0.64 ± 0.02 nM

More lines, main results first:

IC50 [1]: 0.15 ± 0.05 nM | IC50 [2]: < 0.16 nM
SMILES: Cc1nnn(C)c1-c1cnc2c3ccc(C(C)(C)O)cc3n([C@H](c3ccccc3)C3CCOCC3)c2c1 [BMS-986158 (1), reference compound]

AUC(0-inf) ([3]; iv, 1 mg/kg): 1200 ng·h/mL | AUC(0-t) ([3]; iv, 1 mg/kg): 1190 ng·h/mL | MRT inf ([3]; iv, 1 mg/kg): 187 min | clearance ([3]; iv, 1 mg/kg): 17.6 mL/min/kg | half-life ([3]; iv, 1 mg/kg): 164 min | AUC(0-inf) ([3]; po, 3 mg/kg): 2050 ng·h/mL | AUC(0-t) ([3]; po, 3 mg/kg): 2030 ng·h/mL | Cmax ([3]; po, 3 mg/kg): 401 ng/mL | MRT inf ([3]; po, 3 mg/kg): 327 min | Tmax ([3]; po, 3 mg/kg): 165 min | half-life ([3]; po, 3 mg/kg): 200 min | Vss_obs [3]: 2.772 L/kg | IC50 [1]: 0.41 ± 0.34 nM | IC50 [2]: 3.4 ± 0.2 nM
SMILES: CCS(=O)(=O)Nc1ccc(Oc2ccc(F)cc2F)c(-c2cn(C)c(=O)c3[nH]ccc23)c1 [Compound 2, N-(4-(2,4-difluorophenoxy)-3-(6-methyl-7-oxo-6,7-dihydro-1H-pyrrolo[2,3-c]pyridin-4-yl)phenyl)ethanesulfonamide, reference compound]
fold selectivity for the HH pathway against BRD4 (fold less potent against BRD4) ([1]; BRD4 (BD1) IC50 vs GLI-luc IC50): ~10 fold | IC50 [4]: 35500 nM

IC50 [1]: 3.29 ± 0.14 nM | IC50 [2]: 0.25 ± 0.05 nM
SMILES: Cn1cc(-c2cc(N3CCC(CO)S3(=O)=O)ccc2Oc2ccc(F)cc2F)c2cc[nH]c2c1=O (stereo not shown) [Compound 12]

IC50 [1]: 20.5 ± 7.74 nM | IC50 [2]: 0.6 ± 0.07 nM
SMILES: Cn1cc(-c2cc(N3CCCC(CO)S3(=O)=O)ccc2Oc2ccc(F)cc2F)c2cc[nH]c2c1=O (stereo not shown) [Compound 13]

IC50 [1]: 17.7 ± 11 nM | IC50 [2]: 1.47 ± 0.03 nM
SMILES: Cn1cc(-c2cc(N3CCCN(CCN4CCOCC4)S3(=O)=O)ccc2Oc2ccc(F)cc2F)c2cc[nH]c2c1=O [Compound 19]

AUC(0-inf) ([3]; iv, 1 mg/kg): 509 ng·h/mL | AUC(0-t) ([3]; iv, 1 mg/kg): 509 ng·h/mL | MRT inf ([3]; iv, 1 mg/kg): 45.6 min | clearance ([3]; iv, 1 mg/kg): 33.2 mL/min/kg | half-life ([3]; iv, 1 mg/kg): 33.6 min | AUC(0-inf) ([3]; po, 3 mg/kg): 473 ng·h/mL | AUC(0-t) ([3]; po, 3 mg/kg): 473 ng·h/mL | Cmax ([3]; po, 3 mg/kg): 474 ng/mL | MRT inf ([3]; po, 3 mg/kg): 75.6 min | Tmax ([3]; po, 3 mg/kg): 30 min | half-life ([3]; po, 3 mg/kg): 57 min | Vss_obs [3]: 1.513 L/kg | IC50 [1]: 0.93 ± 0.16 nM | IC50 [2]: 0.5 ± 0.06 nM
SMILES: Cn1cc(-c2cc(N3CCCS3(=O)=O)ccc2Oc2ccc(F)cc2F)c2c(F)c[nH]c2c1=O [Compound 24]
IC50 [4]: > 40000 nM

IC50 [1]: 1.5 ± 0.39 nM | IC50 [2]: 0.09 ± 0.04 nM
SMILES: Cn1cc(-c2cc(N3CCCS3(=O)=O)ccc2Oc2ccc(F)cc2F)c2cc(C(N)=O)[nH]c2c1=O [Compound 28]
fold less potent for the HH pathway than against BRD4 ([1]; GLI-luc IC50 vs BRD4 (BD1) IC50): 16 fold | IC50 [4]: > 40000 nM

IC50 [1]: 2.46 ± 0.3 nM | IC50 [2]: 0.09 ± 0.08 nM
SMILES: Cn1cc(-c2cc(N3CCCCS3(=O)=O)ccc2Oc2ccc(F)cc2F)c2cc(C(N)=O)[nH]c2c1=O [Compound 29]

AUC(0-inf) ([3]; iv, 1 mg/kg): 278 ng·h/mL | AUC(0-t) ([3]; iv, 1 mg/kg): 278 ng·h/mL | MRT inf ([3]; iv, 1 mg/kg): 47.6 min | clearance ([3]; iv, 1 mg/kg): 61.5 mL/min/kg | half-life ([3]; iv, 1 mg/kg): 40.8 min | AUC(0-inf) ([3]; po, 3 mg/kg): 9.91 ng·h/mL | AUC(0-t) ([3]; po, 3 mg/kg): 9.91 ng·h/mL | Cmax ([3]; po, 3 mg/kg): 15.2 ng/mL | MRT inf ([3]; po, 3 mg/kg): 53.4 min | Tmax ([3]; po, 3 mg/kg): 15 min | half-life ([3]; po, 3 mg/kg): 81 min | Vss_obs [3]: 2.891 L/kg | IC50 [1]: 0.05 ± 0.01 nM | IC50 [2]: 0.6 ± 0.41 nM
SMILES: CCNC(=O)c1cc2c(-c3cc(N4CCCS4(=O)=O)ccc3Oc3ccc(F)cc3F)cn(C)c(=O)c2[nH]1 [Compound 30]
IC50 [4]: 6400 nM

AUC(0-inf) ([3]; iv, 1 mg/kg): 217 ng·h/mL | AUC(0-t) ([3]; iv, 1 mg/kg): 213 ng·h/mL | MRT inf ([3]; iv, 1 mg/kg): 34.2 min | clearance ([3]; iv, 1 mg/kg): 77.6 mL/min/kg | half-life ([3]; iv, 1 mg/kg): 41.4 min | AUC(0-inf) ([3]; po, 3 mg/kg): 22.1 ng·h/mL | AUC(0-t) ([3]; po, 3 mg/kg): 18.3 ng·h/mL | Cmax ([3]; po, 3 mg/kg): 15.5 ng/mL | MRT inf ([3]; po, 3 mg/kg): 143 min | Tmax ([3]; po, 3 mg/kg): 19.8 min | half-life ([3]; po, 3 mg/kg): 93 min | Vss_obs [3]: 3.512 L/kg | IC50 [1]: 0.81 ± 0.24 nM | IC50 [2]: 0.13 ± 0.005 nM
SMILES: CCNC(=O)c1cc2c(-c3cc(N4CCCCS4(=O)=O)ccc3Oc3ccc(F)cc3F)cn(C)c(=O)c2[nH]1 [Compound 31]
IC50 [4]: 11700 nM

IC50 [1]: 1.03 ± 0.28 nM | IC50 [2]: 2.85 ± 0.5 nM
SMILES: Cn1cc(-c2cc(N3CCCS3(=O)=O)ccc2Oc2ccc3occc3c2)c2cc[nH]c2c1=O [Compound 33]

IC50 [1]: 5.5 ± 1.3 nM
SMILES: Cc1noc(C)c1-c1cnc2c(-c3ccc(C(=O)O)cc3)cn([C@@H](C)c3ccccn3)c2c1 [PLX51107, reference compound]
